Source: patent publication US9029389B2 (Institut Pasteur Korea, priority 2011, dated 2015)
pIC50: −log10 of the molar value.

Biological target: T1, Human 5-lipoxygenase (Homo sapiens, UniProt P09917)
T1 construct: purchased Cayman 60402; host or cells: insect cells
T1 sequence (P09917 1-674): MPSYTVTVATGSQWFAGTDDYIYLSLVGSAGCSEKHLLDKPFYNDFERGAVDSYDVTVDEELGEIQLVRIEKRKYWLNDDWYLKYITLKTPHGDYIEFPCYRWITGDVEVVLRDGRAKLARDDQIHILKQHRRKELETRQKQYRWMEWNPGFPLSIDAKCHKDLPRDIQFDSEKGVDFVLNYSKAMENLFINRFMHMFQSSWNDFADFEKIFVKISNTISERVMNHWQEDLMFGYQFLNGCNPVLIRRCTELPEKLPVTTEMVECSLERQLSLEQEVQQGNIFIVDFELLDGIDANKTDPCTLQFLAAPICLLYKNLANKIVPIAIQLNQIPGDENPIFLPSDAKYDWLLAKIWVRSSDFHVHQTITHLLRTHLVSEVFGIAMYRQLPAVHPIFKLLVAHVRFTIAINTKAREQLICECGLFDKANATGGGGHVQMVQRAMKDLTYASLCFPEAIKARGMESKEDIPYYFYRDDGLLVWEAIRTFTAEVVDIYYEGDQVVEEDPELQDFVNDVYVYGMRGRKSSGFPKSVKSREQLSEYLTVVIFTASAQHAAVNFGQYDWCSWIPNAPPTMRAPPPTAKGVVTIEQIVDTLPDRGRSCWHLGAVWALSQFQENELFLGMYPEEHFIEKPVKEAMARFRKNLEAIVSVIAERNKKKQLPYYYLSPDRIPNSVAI
Test: Activity of compounds against 5-LO enzyme (LTB4 measurement and/or fluorescence method)
Format: biochemical
Details: for inhibition at 10 µM: 5-LO, single concentration of 10 uM in duplicate; for pIC50: 6 or 11 point dose response in duplicate
Description: The activity of compounds against 5-LO were determined by measuring LTB4 (leukotriene B4) levels and/or by a fluorescence method. Both approaches are outlined in more detail below;
Human 5-lipoxygenase (Cayman, Cat#60402) produced in insect cells was pre-incubated with compound for 15 min at RT in incubation buffer (50 mM Tris-Cl, pH 7.4, 2 mM CaCl2, 0.1 mM ATP, 1% DMSO). The enzymatic reaction was started by adding arachidonic acid to a final concentration of 3 uM. After 5 min of incubation at 37° C., the reaction was stopped by heatinactivation at 80° C. for 5 min. LTB4 levels were quantified by using LTB4 EIA kit (Cayman, Cat#520111) as instructed and/or LTB4 levelswere measured with LC/MS/MS using Quattro Premier™ XE tandem quadrupole mass spectrometer equipped with Acquity UPLC system (Waters, Milford, Mass.). The method was slightly modified as reported previously (Zweifel et al., 2008, Willey et al., 2008, Chappell et al, 2011). Briefly, chromatographic separation was carried out with Acquity UPLC BEH Shield RP18 Column (2.1 mm×50 mm, 1.7 μm particle size, Waters, Milford, Mass.). Sample injection volume was 10 μl, the column temperature was 35° C., the mobile phase A consisted of water with 0.1% formic acid and the mobile phase B consisted of acetonitrile with 0.1% formic acid. Flow rate was 0.4 mL/min and the gradient condition was as follows.
Relative quantification of LTB4 and LTB4-d4 (Internal Standard) was done using multi reaction monitoring (MRM) of the transitions of m/z 335→195 for LTB4, 339→197 for LTB4-d4 in electrospray ionization (ESI) negative mode. Desolvation temperature was 400° C., source temperature was 130° C. Capillary voltage, cone voltage, and collision voltage were 3.5 kV, 30V, and 20 eV, respectively. Nitrogen was used for desolvation (750 L/h) and cone (50 L/h) gas. Argon was used for collision gas (0.22 ml/min). The dwell time was 10 ms.
Besides the two methods quantifying LTB4 level, a fluorescence assay measuring 5-HpETE was introduced for high-throughput screening in a 384 well microplate format (Pufahl et al., 2007). For nonspecific ester cleavage of the acetate groups in H2DCFDA, the insect cell lysate expressing human 5-LO (Cayman Cat#60402) was incubated with H2DCFDA (50 mM Tris-Cl, pH 7.5, 2 mM CaCl2, 20 uM H2DCFDA, 500 mU 5-LO per reaction) for 5 minutes. Compound and enzyme mixture were pre-incubated for 5 minutes, and the enzymatic reaction was initiated by addition of ATP and arachidonic acid to a final concentration of 100 uM and 3 uM, respectively. After 5 minutes of incubation, the fluorescence was measured using Spectramax M5 (Molecular Device, Ex/Em=485 nm/530 nm). All steps were carried out at room temperature.
A total of 378 compounds were initially tested at a single concentration of 10 uM in duplicate with the results summarized in Table 1. From these 378 compounds, 53 compounds plus an additional 25 were selected for confirmation of activity by 6 or 11 point dose response in duplicate with the corresponding IC50 values outlined in Table 2.

inhibition at 10 µM [%] | pIC50 | SMILES
< 40 |  | Cc1nc2c(C(F)(F)F)cccn2c1C(=O)NCc1ccccc1 [compound 36, N-Benzyl-2-methyl-8-(trifluoromethyl)imidazo[1,2-a]pyridine-3-carboxamide]
< 40 |  | CCCc1nc2ccccn2c1C(=O)NCc1ccccc1 [compound 37, N-Benzyl-2-propylimidazo[1,2-a]pyridine-3-carboxamide]
< 40 |  | O=C(NCc1ccccc1)c1c(C2CC2)nc2ccccn12 [compound 38, N-Benzyl-2-cyclopropylimidazo[1,2-a]pyridine-3-carboxamide]
< 40 |  | Cc1nc2ccc(-c3ccccc3)cn2c1C(=O)NCc1ccccc1 [compound 39, N-Benzyl-2-methyl-6-phenylimidazo[1,2-a]pyridine-3-carboxamide]
< 40 |  | Cc1nc2ccc(F)cn2c1C(=O)NCc1ccccc1 [compound 40, N-Benzyl-6-fluoro-2-methylimidazo[1,2-a]pyridine-3-carboxamide]
< 40 |  | Cc1nc2ccccn2c1NC(=O)Cc1ccccc1 [compound 41, N-(2-Methylimidazo[1,2-a]pyridin-3-yl)-2-phenylacetamide]
< 40 |  | Cc1nc2cc(C#N)ccn2c1C(=O)NCc1ccccc1 [compound 42, N-Benzyl-7-cyano-2-methylimidazo[1,2-a]pyridine-3-carboxamide]
< 40 |  | Cc1nc2ccc(Cl)cn2c1C(=O)NCc1ccc(-c2ccccc2)cc1 [compound 43, N-(Biphenyl-4-ylmethyl)-6-chloro-2-methylimidazo[1,2-a]pyridine-3-carboxamide]
< 40 |  | Cc1nc2cc(Cl)ccn2c1C(=O)NCc1ccc(-c2ccccc2)cc1 [compound 44, N-(Biphenyl-4-ylmethyl)-7-chloro-2-methylimidazo[2-a]pyridine-3-carboxamide]
< 40 |  | CCc1nc2ccccn2c1C(=O)NCc1ccc(Oc2ccccc2)cc1 [compound 45, 2-Ethyl-N-(4-phenoxybenzyl)imidazo[1,2-a]pyridine-3-carboxamide]
40 to 69 |  | CCCc1nc2ccccn2c1C(=O)NCc1ccc(-c2ccccc2)cc1 [compound 46, N-(Biphenyl-4-ylmethyl)-2-propylimidazo[1,2-a]pyridine-3-carboxamide]
< 40 |  | Cc1nc2c(C#N)cccn2c1C(=O)NCc1ccccc1 [compound 47, N-Benzyl-8-cyano-2-methylimidazo[1,2-a]pyridine-3-carboxamide]
< 40 |  | Cc1nc2c(O)cccn2c1C(=O)NCc1ccccc1 [compound 48, N-Benzyl-8-hydroxy-2-methylimidazo[1,2-a]pyridine-3-carboxamide]
< 40 |  | CCc1nc2ccccn2c1C(=O)NCc1ccc(C(C)(C)C)cc1 [compound 49, N-(4-tert-Butylbenzyl)-2-ethylimidazo[1,2-a]pyridine-3-carboxamide]
< 40 |  | CCc1nc2ccccn2c1C(=O)NCc1ccc2c(ccn2C)c1 [compound 50, 2-Ethyl-N-((1-methyl-1H-indol-5-yl)methyl)imidazo[1,2-a]pyridine-3-carboxamide]
< 40 |  | CCc1nc2ccccn2c1C(=O)NCc1ccc(OC(F)(F)F)cc1 [compound 51, 2-Ethyl-N-(4-(trifluoromethoxy)benzyl)imidazo[1,2-a]pyridine-3-carboxamide]
< 40 |  | CCc1nc2ccccn2c1C(=O)NCc1ccc(OC(C)C)cc1 [compound 53, 2-Ethyl-N-(4-isopropoxybenzyl)imidazo[1,2-a]pyridine-3-carboxamide]

inhibition at 10 µM [%] | pIC50 | SMILES
40 to 69 | 4.70 to 6.00 | CCc1nc2ccc(Cl)cn2c1C(=O)NCc1ccc(OC(F)(F)F)cc1 [compound 55]
< 40 |  | CCc1nc2cc(Cl)ccn2c1C(=O)NCc1ccc(-c2ccc(F)cc2)cc1 [compound 56, 7-Chloro-2-ethyl-N-((4′-fluorobiphenyl-4-yl)methyl)imidazo[1,2-a]pyridine-3-carboxamide]
40 to 69 |  | CCc1nc2ccc(C)cn2c1C(=O)NCc1ccc(-c2ccccc2)cc1 [compound 57, N-(Biphenyl-4-ylmethyl)-2-ethyl-6-methylimidazo[1,2-a]pyridine-3-carboxamide]
> 69 | 4.70 to 6.00 | CCc1nc2ccc(C)cn2c1C(=O)NCc1ccc(Oc2ccccc2)cc1 [compound 58, 2-Ethyl-6-methyl-N-(4-phenoxybenzyl)imidazo[1,2-a]pyridine-3-carboxamide]
40 to 69 |  | CCc1nc2ccc(C)cn2c1C(=O)NCc1ccc(OC(F)(F)F)cc1 [compound 59, 2-Ethyl-6-methyl-N-(4-(trifluoromethoxy)benzyl)imidazo[1,2-a]pyridine-3-carboxamide]
40 to 69 |  | CCc1nc2ccc(C)cn2c1C(=O)NCc1ccc2ccn(C)c2c1 [compound 60, 2-Ethyl-6-methyl-N-((1-methyl-1H-indol-6-yl)methyl)imidazo[1,2-a]pyridine-3-carboxamide]
< 40 |  | CCc1nc2ccc(Cl)cn2c1C(=O)NCc1ccc(Oc2ccccc2)cc1 [compound 62]
40 to 69 |  | CCc1nc2ccc(Cl)cn2c1C(=O)NCc1ccc(C(C)(C)C)cc1 [compound 63]
< 40 |  | CCc1nc2ccc(Cl)cn2c1C(=O)NCc1ccc(N2CCOCC2)cc1 [compound 64]
< 40 |  | CCc1nc2ccc(Cl)cn2c1C(=O)NCc1ccc(OC(C)C)cc1 [compound 65]
< 40 |  | CCc1nc2ccc(Cl)cn2c1C(=O)NCc1ccc(OCC(C)C)cc1 [compound 66]
< 40 |  | CCc1nc2ccc(Cl)cn2c1C(=O)NCc1ccc2c(ccn2C)c1 [compound 67]
< 40 |  | CCc1nc2ccc(Cl)cn2c1C(=O)NCc1ccc2ccn(C)c2c1 [compound 68]
40 to 69 |  | CCc1nc2ccc([N+](=O)[O-])cn2c1C(=O)NCc1ccc(OC(F)(F)F)cc1 [compound 69, 2-Ethyl-6-nitro-N-(4-(trifluoromethoxy)benzyl)imidazo[1,2-a]pyridine-3-carboxamide]
< 40 |  | CCc1nc2cnccn2c1C(=O)NCc1ccc(-c2ccc(Cl)cc2)cc1 [compound 71, N-((4′-Chlorobiphenyl-4-yl)methyl)-2-ethylimidazo[1,2-a]pyrazine-3-carboxamide]
40 to 69 |  | CCc1nc2ccc(Cl)cn2c1C(=O)NCc1ccc(-c2ccccc2Cl)cc1 [compound 72, 6-Chloro-N-((2′-chlorobiphenyl-4-yl)methyl)-2-ethylimidazo[1,2-a]pyridine-3-carboxamide]
< 40 |  | CCc1nc2ccc(Cl)cn2c1C(=O)NCc1ccc(-c2ccc(Cl)cc2)cc1 [compound 73, 6-Chloro-N-((4′-chlorobiphenyl-4-yl)methyl)-2-ethylimidazo[1,2-a]pyridine-3-carboxamide]

SMILES | inhibition at 10 µM [%] | pIC50
CCc1nc2ccccn2c1C(=O)NCc1ccc(OCC(C)C)cc1 [compound 54, 2-Ethyl-N-(4-isobutoxybenzyl)imidazo[1,2-a]pyridine-3-carboxamide] | < 40 | 
